Measurements reported in ChEMBL document CHEMBL1201862, “PubChem BioAssay data set” (2004).
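The compound was tested at five concentrations on cells cultured in 96-well plates, with a 48-hour exposure period. Abbreviation: GI50, concentration required for 50% inhibition of growth.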 Active and inactive are the calls of the source. Cut-off read from the data, not from the text of the source: active = GI50 up to about 1.1 µM and inactive = higher.

Key:
Assay in all cases: NCI-60 cell line screen, 48 h
A549 = tested on: A549
COLO 205 = tested on: COLO 205
HCC 2998 = tested on: HCC 2998
HOP-62 = tested on: HOP-62
K562 = tested on: K562
KM12 = tested on: KM12
LOX IMVI = tested on: LOX IMVI
OVCAR-3 = tested on: OVCAR-3
RPMI-8226 = tested on: RPMI-8226
SF-268 = tested on: SF-268
SK-OV-3 = tested on: SK-OV-3
SN12C = tested on: SN12C
SW-620 = tested on: SW-620
TK-10 = tested on: TK-10
U-251 = tested on: U-251
UO-31 = tested on: UO-31
NCI-H226 = tested on: NCI-H226

Measured: GI50

CC1(C)CCOC(Sc2ccccc2)C1 (stereo not drawn)
inactive: A549 24.3 µM | COLO 205 52.2 µM | HCC 2998 > 100 µM | HOP-62 > 100 µM | K562 21.9 µM | KM12 76.6 µM | LOX IMVI 91.4 µM | OVCAR-3 87.1 µM | RPMI-8226 18.3 µM | SF-268 > 100 µM | SK-OV-3 > 100 µM | SN12C > 100 µM | SW-620 > 100 µM | TK-10 > 100 µM | U-251 18.7 µM | UO-31 80.9 µM

COc1ccc2[nH]c3c(c2c1)[C@H](c1ccccc1)C[C@@H]1C(=O)N(c2ccccc2)C(=O)[C@H]31
inactive: A549 13.3 µM | COLO 205 > 100 µM | HCC 2998 35.5 µM | HOP-62 22 µM | K562 47.9 µM | KM12 17.5 µM | LOX IMVI 33.2 µM | NCI-H226 19.4 µM | OVCAR-3 23.8 µM | SF-268 > 100 µM | SK-OV-3 23.3 µM | SN12C 12.1 µM | SW-620 20.7 µM | TK-10 33.7 µM | U-251 18 µM | UO-31 22.9 µM

CN(C)/C=N/c1nc2ncn(CCOC(=O)c3ccccc3)c2c(=O)[nH]1
inactive: A549 > 100 µM | COLO 205 > 100 µM | HOP-62 > 100 µM | K562 > 100 µM | KM12 > 100 µM | LOX IMVI > 100 µM | NCI-H226 > 100 µM | OVCAR-3 > 100 µM | RPMI-8226 > 100 µM | SF-268 > 100 µM | SK-OV-3 > 100 µM | SN12C > 100 µM | SW-620 > 100 µM | TK-10 > 100 µM | U-251 > 100 µM | UO-31 > 100 µM

COc1ccc(CCC2c3cc(OC)c(OC)cc3CCN2C)cc1OC (stereo not drawn)
inactive: A549 > 100 µM | COLO 205 > 100 µM | HCC 2998 > 100 µM | HOP-62 > 100 µM | K562 > 100 µM | KM12 > 100 µM | LOX IMVI > 100 µM | NCI-H226 > 100 µM | OVCAR-3 > 100 µM | RPMI-8226 > 100 µM | SF-268 > 100 µM | SK-OV-3 > 100 µM | SN12C > 100 µM | SW-620 > 100 µM | TK-10 > 100 µM | U-251 > 100 µM | UO-31 > 100 µM

CC(/C(=N\Nc1ccccc1)c1ccc(O)cc1)C1C(=O)Oc2ccccc21 (stereo not drawn)
inactive: A549 > 100 µM | COLO 205 > 100 µM | HCC 2998 > 100 µM | HOP-62 > 100 µM | K562 > 100 µM | KM12 > 100 µM | LOX IMVI > 100 µM | OVCAR-3 > 100 µM | RPMI-8226 > 100 µM | SN12C > 100 µM | SW-620 > 100 µM | TK-10 > 100 µM | U-251 > 100 µM | UO-31 > 100 µM

N#CC(C#N)=c1[nH]c2cccc3c2-c2c(cccc2c3=C(C#N)C#N)[nH]1
inactive: A549 > 100 µM | COLO 205 > 100 µM | HCC 2998 > 100 µM | HOP-62 > 100 µM | K562 > 100 µM | KM12 > 100 µM | LOX IMVI > 100 µM | NCI-H226 > 100 µM | OVCAR-3 > 100 µM | RPMI-8226 > 100 µM | SF-268 > 100 µM | SK-OV-3 > 100 µM | SN12C > 100 µM | SW-620 > 100 µM | TK-10 > 100 µM | U-251 > 100 µM | UO-31 > 100 µM

Cc1ccc(NC(=O)CC2SC(=N)NC2=O)cc1C (stereo not drawn)
inactive: A549 > 100 µM | COLO 205 > 100 µM | HCC 2998 75 µM | HOP-62 > 100 µM | K562 > 100 µM | KM12 > 100 µM | LOX IMVI > 100 µM | NCI-H226 > 100 µM | OVCAR-3 > 100 µM | RPMI-8226 > 100 µM | SF-268 > 100 µM | SK-OV-3 > 100 µM | SN12C > 100 µM | SW-620 > 100 µM | TK-10 > 100 µM | U-251 64.3 µM | UO-31 > 100 µM

Cn1c(=O)nc2n(-c3cccc(F)c3)c3ccccc3nc-2c1=O
inactive: A549 19 µM | COLO 205 6.11 µM | HCC 2998 13.4 µM | HOP-62 53.2 µM | K562 19.6 µM | KM12 23.1 µM | LOX IMVI 18.1 µM | NCI-H226 29.6 µM | OVCAR-3 3.57 µM | RPMI-8226 20.5 µM | SF-268 43.3 µM | SK-OV-3 > 100 µM | SN12C 23.6 µM | SW-620 11.1 µM | TK-10 31.6 µM | U-251 19.3 µM | UO-31 52 µM

Brc1ccc(N2C[N+](c3ccc(Br)cc3)=NC(c3ccccc3)=N2)cc1
inactive: A549 18.6 µM | COLO 205 19.1 µM | HCC 2998 15.4 µM | HOP-62 17.2 µM | K562 10.9 µM | KM12 14.9 µM | NCI-H226 27.2 µM | RPMI-8226 9.35 µM | SF-268 18.3 µM | SK-OV-3 19.6 µM | SN12C 19 µM | SW-620 20.9 µM | TK-10 19.5 µM | U-251 19.1 µM | UO-31 14.5 µM

COC(CN1C(=O)c2cccc3cccc(c23)C1=O)OC
inactive: A549 56.9 µM | COLO 205 > 100 µM | HCC 2998 > 100 µM | HOP-62 43.7 µM | K562 68.5 µM | KM12 80.4 µM | LOX IMVI 53.5 µM | NCI-H226 26.2 µM | OVCAR-3 > 100 µM | RPMI-8226 52.6 µM | SF-268 > 100 µM | SK-OV-3 > 100 µM | SN12C 41.1 µM | SW-620 91.8 µM | TK-10 74.3 µM | U-251 42.4 µM | UO-31 37.1 µM

CC1CC[C@@]23CCC4(C)[C@@](C=CC5[C@@]6(C)CCC(=O)C(C)(C)C6CC[C@]54C)(OC2=O)[C@@H]3[C@H]1C (stereo partly drawn)
inactive: A549 6.93 µM | COLO 205 13.7 µM | HOP-62 16.9 µM | K562 6.3 µM | KM12 12 µM | LOX IMVI 13.8 µM | NCI-H226 19.8 µM | OVCAR-3 11.9 µM | SF-268 50.4 µM | SK-OV-3 27.9 µM | SN12C 20.2 µM | SW-620 30.8 µM | TK-10 22.4 µM | U-251 17.3 µM | UO-31 8.02 µM

CC(=O)NC(C=O)C(O[C@H](C)C(=O)NC(C)C(=O)NC(CCC(N)=O)C(=O)OCc1ccccc1)C(O)C(O)COC(=O)CCNc1c2ccccc2nc2cccc([N+](=O)[O-])c12 (stereo partly drawn)
inactive: A549 2.23 µM | COLO 205 1.29 µM | HCC 2998 1.54 µM | HOP-62 2.95 µM | K562 2.51 µM | KM12 1.91 µM | LOX IMVI 14.6 µM | NCI-H226 2.6 µM | OVCAR-3 1.85 µM | RPMI-8226 1.63 µM | SF-268 1.79 µM | SN12C 2.02 µM | SW-620 1.99 µM | TK-10 13.6 µM | U-251 2.56 µM | UO-31 16.9 µM

COc1ccc(C2c3cc(OC)c(OC)cc3C(Cc3ccc([N+](=O)[O-])cc3)C2c2ccc([N+](=O)[O-])cc2)cc1OC (stereo not drawn)
inactive: A549 > 100 µM | COLO 205 > 100 µM | HCC 2998 > 100 µM | HOP-62 > 100 µM | K562 > 100 µM | KM12 > 100 µM | LOX IMVI > 100 µM | NCI-H226 > 100 µM | OVCAR-3 > 100 µM | RPMI-8226 > 100 µM | SF-268 > 100 µM | SN12C > 100 µM | SW-620 > 100 µM | TK-10 > 100 µM | U-251 > 100 µM | UO-31 59.6 µM

CN1Cc2c(nc(-c3ccc(Br)cc3)c[n+]2[O-])N(C)C1
inactive: A549 > 100 µM | COLO 205 > 100 µM | HOP-62 > 100 µM | K562 > 100 µM | KM12 > 100 µM | NCI-H226 > 100 µM | OVCAR-3 > 100 µM | SF-268 > 100 µM | SK-OV-3 > 100 µM | SN12C > 100 µM | SW-620 > 100 µM | U-251 > 100 µM | UO-31 > 100 µM

COc1cccc(/C=C/c2cc(OC)c(OC)c(OC)c2)c1
inactive: A549 42.3 µM | COLO 205 34.4 µM | HCC 2998 > 100 µM | HOP-62 37 µM | K562 33.3 µM | KM12 66.4 µM | NCI-H226 18.4 µM | OVCAR-3 26.8 µM | RPMI-8226 34 µM | SF-268 68.9 µM | SK-OV-3 38.2 µM | SN12C 52.2 µM | SW-620 50.4 µM | U-251 36.5 µM | UO-31 21.2 µM

O=C(O)CSc1nnc(COc2ccccc2)n1-c1ccccc1
inactive: A549 > 100 µM | COLO 205 > 100 µM | HCC 2998 > 100 µM | HOP-62 > 100 µM | KM12 > 100 µM | LOX IMVI > 100 µM | NCI-H226 > 100 µM | OVCAR-3 > 100 µM | RPMI-8226 > 100 µM | SF-268 > 100 µM | SK-OV-3 > 100 µM | SN12C > 100 µM | TK-10 > 100 µM | U-251 > 100 µM | UO-31 > 100 µM

COC(=O)CC1C[C@H](C#N)N(C(=O)c2ccccc2)C[C@@H]1CC[N+](=O)[O-] (stereo partly drawn)
inactive: A549 > 100 µM | COLO 205 > 100 µM | HCC 2998 > 100 µM | HOP-62 > 100 µM | K562 > 100 µM | KM12 > 100 µM | LOX IMVI > 100 µM | OVCAR-3 > 100 µM | RPMI-8226 > 100 µM | SF-268 > 100 µM | SK-OV-3 > 100 µM | SN12C > 100 µM | SW-620 > 100 µM | TK-10 > 100 µM | U-251 > 100 µM | UO-31 > 100 µM
